From paper doi:10.1101/2024.07.23.604814v1 (biorxiv, 2024) come the findings set out here.

SMILES strings stand for the structures.

The test deals with T1, mouse sEH (Mus musculus, UniProt P34914).
T1 sequence (P34914 1-554): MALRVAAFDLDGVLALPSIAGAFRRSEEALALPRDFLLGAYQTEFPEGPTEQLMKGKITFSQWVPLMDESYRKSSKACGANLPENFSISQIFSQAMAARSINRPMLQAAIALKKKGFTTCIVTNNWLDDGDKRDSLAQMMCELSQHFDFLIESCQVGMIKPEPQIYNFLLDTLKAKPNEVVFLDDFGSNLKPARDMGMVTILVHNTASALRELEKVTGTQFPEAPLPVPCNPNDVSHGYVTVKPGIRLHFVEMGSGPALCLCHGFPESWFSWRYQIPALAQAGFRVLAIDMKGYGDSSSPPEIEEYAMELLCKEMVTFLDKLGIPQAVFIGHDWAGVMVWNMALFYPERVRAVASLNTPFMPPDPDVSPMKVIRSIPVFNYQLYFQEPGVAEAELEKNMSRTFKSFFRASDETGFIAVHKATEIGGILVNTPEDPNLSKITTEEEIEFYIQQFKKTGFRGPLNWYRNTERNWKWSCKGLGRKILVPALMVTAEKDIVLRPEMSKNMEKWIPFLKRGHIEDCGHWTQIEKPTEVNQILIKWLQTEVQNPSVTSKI
Put plainly: fluorogenic substrate hydrolase assay. It counts as biochemical. Conditions: recombinant purified enzyme, average of triplicates.
Take `O=C1CCC(N2C(=O)c3ccc(NCCOCCOCCOCCOCCNC(=O)c4ccc(O[C@H]5CC[C@H](NC(=O)Nc6ccc(OC(F)(F)F)cc6)CC5)cc4)cc3C2=O)C(=O)N1` (stereo partly drawn) [compound 2]: the IC50 came to 0.64 nM.
The result for `Cc1ncsc1-c1ccc(CNC(=O)[C@@H]2C[C@@H](O)CN2C(=O)[C@@H](NC(=O)CCCCCCC(=O)N2CCC(NC(=O)Nc3ccc(OC(F)(F)F)cc3)CC2)C(C)(C)C)cc1` [compound 12] reads 3.1 nM.
`O=C(COc1ccc(C2CCC(=O)NC2=O)cc1)NCCOCCOCCOCCOCCNC(=O)c1ccc(O[C@H]2CC[C@H](NC(=O)Nc3ccc(OC(F)(F)F)cc3)CC2)cc1` (stereo partly drawn) [compound 3]: the IC50 was found to be 4.7 nM.
For the compound `O=C1CCC(N2C(=O)c3cccc(NCCOCCOCCC(=O)N4CCC(NC(=O)Nc5ccc(OC(F)(F)F)cc5)CC4)c3C2=O)C(=O)N1` (stereo not drawn) [compound 10], the 50% inhibitory concentration (IC50) stood at 3 nM.
Turning to `O=C1CCC(N2C(=O)c3cccc(NCCCCCC(=O)N4CCC(NC(=O)Nc5ccc(OC(F)(F)F)cc5)CC4)c3C2=O)C(=O)N1` (stereo not drawn) [compound 9], the 50% inhibitory concentration (IC50) was determined as 1.4 nM.
The result for `O=C1CCC(N2Cc3c(NCCOCCOCCOCCNC(=O)c4ccc(O[C@H]5CC[C@H](NC(=O)Nc6ccc(OC(F)(F)F)cc6)CC5)cc4)cccc3C2=O)C(=O)N1` (stereo partly drawn) [compound 1] reads 1.6 nM; that for `O=C(COc1ccc(N2CCC(=O)NC2=O)cc1)NCCOCCOCCOCCOCCNC(=O)c1ccc(O[C@H]2CC[C@H](NC(=O)Nc3ccc(OC(F)(F)F)cc3)CC2)cc1` [compound 4], 6 nM.
In the case of `Cc1ccc(C(=O)NCCOCCOCCOCCOCCNC(=O)c2ccc(O[C@H]3CC[C@H](NC(=O)Nc4ccc(OC(F)(F)F)cc4)CC3)cc2)cc1N1CCC(=O)NC1=O` [compound 5], the IC50 was found to be 9.3 nM.
With `O=C(COc1cccc2c1C(=O)N(C1CCC(=O)NC1=O)C2=O)NCCOCCOCCOCCOCCNC(=O)c1ccc(O[C@H]2CC[C@H](NC(=O)Nc3ccc(OC(F)(F)F)cc3)CC2)cc1` (stereo partly drawn) [1a, compound 1a], the half-inhibitory concentration (IC50) was found to be 4 nM.
